How the values were obtained:
[1] = refractive index (Na D-line) (dimensionless); xn = mol fraction of the nth substance listed; conditions: 101 kPa, Liquid, Standard Abbe refractometry, x2 = 0.8
[2] = xn = mol fraction of the nth substance listed; conditions: 101 kPa, Liquid, Cone and plate viscometry, x2 = 0.8

CC[P+](c1ccccc1)(c1ccccc1)c1ccccc1.[I-] [ethyltriphenylphosphonium iodide] + O=S1(=O)CCCC1
Conditions | refractive index, 298.15 K | refractive index, 303.15 K | refractive index, 313.15 K | refractive index, 323.15 K | refractive index, 333.15 K | viscosity, 298.15 K [mPa·s] | viscosity, 308.15 K [mPa·s] | viscosity, 318.15 K [mPa·s] | viscosity, 328.15 K [mPa·s] | viscosity, 338.15 K [mPa·s]
[1] | 1.516 | 1.5142 | 1.5104 | 1.5069 | 1.5033 | – | – | – | – | –
[2] | – | – | – | – | – | 95.03 | 52.14 | 24.15 | 15.24 | 9.578

— the NIST ThermoML archive (doi:10.1016/j.jct.2013.05.046)
